Measured values published in PubChem BioAssay AID248 (DTP/NCI, 2004).
“And” between values parts separate entries of the source, which are not always exact repeats. Equal entries are not always repeated. Toxic doses and inconclusive results are not listed. Cut-off read from the data, not from the text of the source: active = T/C of 150% or more; inactive = T/C below 125%.

Tested on: L1210 leukemia ip in BDF1 mice, survival T/C
Assay: NCI In Vivo Anticancer Drug Screen. Data for tumor model L1210 Leukemia (intraperitoneal) in B6D2F1 (BDF1) mice
Settings: endpoint: mean survival time, higher = longer survival
Outline: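 Transplanted-tumor mice were given test agent; controls received vehicle only. Survival readings from the two groups were divided (treated over control).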

[1] = dose: 100.0 mg/kg/injection, schedule: Q01DX001 (ip), vehicle: saline
[2] = dose: 200.0 mg/kg/injection, schedule: Q01DX001 (ip), vehicle: saline
[3] = dose: 400.0 mg/kg/injection, schedule: Q01DX001 (ip), vehicle: saline
[4] = dose: 100.0 mg/kg/injection, schedule: Q01DX009 (ip), vehicle: Klucel (hydroxypropylcellulose) (HPC)
[5] = dose: 100.0 mg/kg/injection, schedule: Q04DX003 (ip), vehicle: saline
[6] = dose: 200.0 mg/kg/injection, schedule: Q01DX009 (ip), vehicle: Klucel (hydroxypropylcellulose) (HPC)
[7] = dose: 200.0 mg/kg/injection, schedule: Q04DX003 (ip), vehicle: saline
[8] = dose: 400.0 mg/kg/injection, schedule: Q04DX003 (ip), vehicle: saline
[9] = dose: 100.0 mg/kg/injection, schedule: Q04DX003 (ip), vehicle: saline with Tween-80
[10] = dose: 200.0 mg/kg/injection, schedule: Q04DX003 (ip), vehicle: saline with Tween-80
[11] = dose: 400.0 mg/kg/injection, schedule: Q04DX003 (ip), vehicle: saline with Tween-80
[12] = dose: 100.0 mg/kg/injection, schedule: Q01DX009 (ip), vehicle: saline with Tween-80

Measured: T/C

O=C(Nc1ccccc1)Nc1nccs1
inactive: [1] 102 % of control | dose: 100.0 mg/kg/injection, schedule: Q04DX003 (ip), vehicle: Klucel (hydroxypropylcellulose) (HPC) 105 % of control | [2] 106 % of control | dose: 200.0 mg/kg/injection, schedule: Q04DX003 (ip), vehicle: Klucel (hydroxypropylcellulose) (HPC) 100 % of control | [3] 101 % of control

Cc1cc(Cl)c(Cl)cc1NC(=O)C(Br)C(Br)c1ccccc1 (stereo not given)
inactive: dose: 100.0 mg/kg/injection, schedule: Q01DX009 (ip), vehicle: other 92 % of control | dose: 200.0 mg/kg/injection, schedule: Q01DX009 (ip), vehicle: other 92 % of control | dose: 400.0 mg/kg/injection, schedule: Q01DX009 (ip), vehicle: other 92 % of control

C/C(CC(=O)O)=C(\C)C(=O)O
inactive: dose: 100.0 mg/kg/injection, schedule: Q01DX009 (ip), vehicle: water 95 % of control | dose: 100.0 mg/kg/injection, schedule: Q04DX003 (ip), vehicle: water 96 % of control | dose: 200.0 mg/kg/injection, schedule: Q01DX009 (ip), vehicle: water 91 % of control | dose: 200.0 mg/kg/injection, schedule: Q04DX003 (ip), vehicle: water 102 % of control | dose: 400.0 mg/kg/injection, schedule: Q04DX003 (ip), vehicle: water 104 % of control

Cc1nnc2ccnn2c1C
inactive: [1] 96 % of control | [2] 96 % of control | [3] 100 % of control

Cc1ccnc2c3c4c(cc12)c(C)cc(=O)n4CO3
inactive: dose: 75.0 mg/kg/injection, schedule: Q01DX001 (ip), vehicle: Klucel (hydroxypropylcellulose) (HPC) 104 % of control | dose: 150.0 mg/kg/injection, schedule: Q01DX001 (ip), vehicle: Klucel (hydroxypropylcellulose) (HPC) 95 % of control | dose: 150.0 mg/kg/injection, schedule: Q01DX009 (ip), vehicle: Klucel (hydroxypropylcellulose) (HPC) 114 % of control | dose: 300.0 mg/kg/injection, schedule: Q01DX001 (ip), vehicle: Klucel (hydroxypropylcellulose) (HPC) 98 % of control

CC(C)(CO)NCc1ccc(Cl)c(Cl)c1
inactive: [4] 98 % of control | [5] 106 % of control | [6] 102 % of control | [7] 97 % of control | [8] 97 % of control

Cc1cc2c3ccccc3ccc2[n+]2ccccc12
inactive: dose: 4.5 mg/kg/injection, schedule: Q01DX009 (ip), vehicle: acetone 115 % of control | dose: 4.5 mg/kg/injection, schedule: Q01DX009 (ip), vehicle: saline 100 % of control | dose: 9.0 mg/kg/injection, schedule: Q01DX009 (ip), vehicle: acetone 120 % of control | dose: 9.0 mg/kg/injection, schedule: Q01DX009 (ip), vehicle: saline 110 % of control | dose: 18.0 mg/kg/injection, schedule: Q01DX009 (ip), vehicle: acetone 115 % of control | dose: 18.0 mg/kg/injection, schedule: Q01DX009 (ip), vehicle: saline 120 % of control | [1] 107 % of control

CCc1nc(=S)c2ncn(CC)c2[nH]1
inactive: [9] 106 % of control | [10] 96 % of control | [11] 90 % of control

Nc1ncnc2c1nc(Br)n2C1OC(CO)C(O)C1O (stereo not given)
inactive: [5] 97 % of control | [7] 101 % of control | [8] 101 % of control

Cc1cc(/C=N/N2CCN(/N=C/c3cc(C)n(-c4ccccc4)c3C)CC2)c(C)n1-c1ccccc1
inactive: dose: 100.0 mg/kg/injection, schedule: Q01DX001 (ip), vehicle: carboxymethylcellulose (CMC) 95 % of control | dose: 200.0 mg/kg/injection, schedule: Q01DX001 (ip), vehicle: carboxymethylcellulose (CMC) 88 % of control | dose: 400.0 mg/kg/injection, schedule: Q01DX001 (ip), vehicle: carboxymethylcellulose (CMC) 90 % of control

CCN(CC)CCOc1ccc(Br)cc1
inactive: dose: 25.0 mg/kg/injection, schedule: Q04DX003 (ip), vehicle: saline 105 % of control | dose: 50.0 mg/kg/injection, schedule: Q01DX009 (ip), vehicle: saline 102 % of control | dose: 50.0 mg/kg/injection, schedule: Q04DX003 (ip), vehicle: saline 100 % of control | dose: 100.0 mg/kg/injection, schedule: Q01DX009 (ip), vehicle: saline 102 % of control | [5] 103 % of control and 111 % of control

COc1ccc2c(c1)CCC1(C)C2=CC(=O)/C1=C\[O-].COc1ccc2c(c1)CCC1(C)C2=CC(=O)/C1=C\[O-].[Cu+2] (stereo not given)
inactive: dose: 25.0 mg/kg/injection, schedule: Q01DX009 (ip), vehicle: saline with Tween-80 108 % of control | dose: 50.0 mg/kg/injection, schedule: Q01DX009 (ip), vehicle: saline with Tween-80 113 % of control | [12] 97 % of control | dose: 100.0 mg/kg/injection, schedule: Q04DX003 (ip), vehicle: saline sonified 91 % of control

CN(C(=O)Nc1ccccc1F)C1CCCCC1
inactive: dose: 50.0 mg/kg/injection, schedule: Q01DX009 (ip), vehicle: Klucel (hydroxypropylcellulose) (HPC) 101 % of control | [4] 90 % of control | [6] 96 % of control

COc1c2occc2c(OC)c2c(=O)cc(/C=C/c3cccnc3)oc12
inactive: [1] 97 % of control | [2] 101 % of control | [3] 101 % of control

CCN(CC)c1ccc(/C=C/C=O)cc1
inactive: dose: 50.0 mg/kg/injection, schedule: Q01DX009 (ip), vehicle: gum acacia 103 % of control | dose: 100.0 mg/kg/injection, schedule: Q01DX009 (ip), vehicle: gum acacia 103 % of control | dose: 100.0 mg/kg/injection, schedule: Q04DX003 (ip), vehicle: gum acacia 93 % of control | dose: 200.0 mg/kg/injection, schedule: Q01DX009 (ip), vehicle: gum acacia 91 % of control | dose: 200.0 mg/kg/injection, schedule: Q04DX003 (ip), vehicle: gum acacia 96 % of control

CCCCCC[CH2][Ge][CH2]CCCCCC
inactive: dose: 100.0 mg/kg/injection, schedule: Q04DX002 (ip), vehicle: saline with Tween-80 95 % of control | dose: 200.0 mg/kg/injection, schedule: Q04DX002 (ip), vehicle: saline with Tween-80 92 % of control | dose: 400.0 mg/kg/injection, schedule: Q04DX002 (ip), vehicle: saline with Tween-80 103 % of control

COc1ccc(OCCOC(=O)Nc2cccc(C(F)(F)F)c2)cc1
inactive: [12] 109 % of control | dose: 200.0 mg/kg/injection, schedule: Q01DX009 (ip), vehicle: saline with Tween-80 96 % of control | dose: 400.0 mg/kg/injection, schedule: Q01DX009 (ip), vehicle: saline with Tween-80 91 % of control

Cc1cc(=O)[nH]c(C(F)(F)F)n1
inactive: dose: 44.0 mg/kg/injection, schedule: Q01DX Z (ip), vehicle: methylcellulose (MC) 93 % of control | dose: 66.0 mg/kg/injection, schedule: Q01DX Z (ip), vehicle: methylcellulose (MC) 107 % of control | dose: 100.0 mg/kg/injection, schedule: Q01DX Z (ip), vehicle: methylcellulose (MC) 102 % of control

O=C(O)c1ccc(/C=N/NC(=O)c2cccc3ccccc23)cc1
inactive: [1] 87 % of control | [2] 87 % of control

CCCCCCCC(=O)Nc1cccc(O)c1
inactive: [9] 96 % of control | [10] 95 % of control | [11] 96 % of control

CCC(O)(CC)C(C)C
inactive: dose: 90.0 mg/kg/injection, schedule: Q01DX001 (ip), vehicle: saline 97 % of control | [1] 102 % of control | dose: 130.0 mg/kg/injection, schedule: Q01DX001 (ip), vehicle: saline 92 % of control | dose: 300.0 mg/kg/injection, schedule: Q01DX001 (ip), vehicle: saline 96 % of control | [3] 96 % of control

Cc1ccc(C[P+](c2ccccc2)(c2ccccc2)c2ccccc2)cc1
inactive: dose: 2.0 mg/kg/injection, schedule: Q01DX015 (ip), vehicle: saline 97 % of control | dose: 4.0 mg/kg/injection, schedule: Q01DX015 (ip), vehicle: saline 100 % of control | dose: 5.0 mg/kg/injection, schedule: Q01DX001 (ip), vehicle: saline 102 % of control | dose: 8.0 mg/kg/injection, schedule: Q01DX015 (ip), vehicle: saline 100 % of control | dose: 10.0 mg/kg/injection, schedule: Q01DX001 (ip), vehicle: saline 104 % of control | dose: 20.0 mg/kg/injection, schedule: Q01DX001 (ip), vehicle: saline 93 % of control | dose: 40.0 mg/kg/injection, schedule: Q01DX001 (ip), vehicle: saline 96 % of control

CC[N+](C)(CC)CCC[N+]1(C)CC2CC=CCC2C1 (stereo not given)
inactive: dose: 55.0 mg/kg/injection, schedule: Q01DX Z (ip), vehicle: saline 103 % of control | dose: 83.0 mg/kg/injection, schedule: Q01DX Z (ip), vehicle: saline 97 % of control | dose: 125.0 mg/kg/injection, schedule: Q01DX Z (ip), vehicle: saline 96 % of control
